Test results: the supplement of paper PMC10307832

What was measured:
[1] = compound: NC(=O)c1ccc(N(C(N)=O)c2c(F)cccc2F)nc1-c1ccc(F)cc1F [VX-702]; experiment: relative viability (nuclei count vs DMSO), 5 days (fraction); higher = more cells survive
Procedure, shortened: (§1)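 Only plates meeting two conditions passed: control CV below 25% and at least one doubling. Lung cancer cell lines, kept overnight at 37 °C in 1536-well plates, were pinned with five library-drug doses (not always all listed) √10 apart on vehicle-anchored plates and grown 5 days without medium change. A one-step fix, permeabilisation and Hoechst stain preceded 4× imaging and MetaXpress nuclear counting. Viability equals treated-well nuclei divided by vehicle-well nuclei, as the median over plates.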

[2] = compound: CC(C)(C)c1nc(-c2cccc(NS(=O)(=O)c3c(F)cccc3F)c2F)c(-c2ccnc(N)n2)s1 [Dabrafenib]; experiment: as above
Procedure, shortened: as §1

Cell Line	relative viability ([1]; 0.02 µM)	relative viability ([1]; 0.2 µM)	relative viability ([1]; 0.6325 µM)	relative viability ([1]; 2 µM)	relative viability ([2]; 0.003 µM)	relative viability ([2]; 0.009487 µM)	relative viability ([2]; 0.03 µM)	relative viability ([2]; 0.09487 µM)	relative viability ([2]; 0.3 µM)
201T	0.981	1	1.01	0.976	0.958	1.01	0.914	0.987	1.04
A549	0.999	0.928	1.02	1.07	0.928	1.03	0.93	0.93	0.969
A-427	0.985	0.964	1.04	0.754		0.983	0.849	0.797	1.03
ABC-1	0.979	0.813	0.903	1.02	0.833	1.06	0.871	0.844	1.02
BEN	0.853	0.879	0.866	1.06		1.05		0.889	1.07
CAL-12T	0.959	0.994	1.04	1.07	0.96	1.01	1.05	0.946	1.18
COR-L23	1.17	1.05	1.16	1.21	0.976	1	0.968	0.93	0.998
COR-L 105	0.941	0.961	0.879	0.861	0.851	0.995	0.927	0.955	1.13
Calu-6	1.11	1	1.08	1.21	1.03	1.03	0.909	0.805	0.786
ChaGo-K-1	1.03	0.993	0.994	1.02	0.787	0.951	0.876	0.912	1.01
EBC-1	1.08	0.999	0.968	1.08	0.856	0.987	0.895	0.533	0.391
EKVX	0.95	0.863	0.891	0.923	0.693	1.03	0.932	0.941	1.14
EMC-BAC-2	1	0.943	0.98	0.842		1.04	0.706	0.701	0.751
EPLC-272H	1.03	0.827	1.02	1.01	0.509	1.01	0.971	0.785	0.964
H3255	0.978	0.966	0.96	1.05	0.868	1.05	0.992	0.873	1.04
HARA	0.964	0.897	0.965	0.969	0.737	1		0.922	1.12
HCC-15	0.989	0.982	1.08	1.03	0.942	1.04	1.04	0.928	0.921
HCC-44	1.05	0.979	1.08	1.05	0.885	0.971	1.01	0.921	0.933
HCC-78	0.947	0.878	0.98	1.07		1.03	0.932	0.816	1.05
HCC-366	1.06	0.969	0.98	0.587	0.734	1.04	0.725	0.993	1.11
HCC-827	1.03	1.08	1.09	0.647	0.916	1.08	0.996		1.02
HOP-62	1.06	0.988	1.09	1.05	0.778	1.02	1.03	0.685	0.812
IA-LM	0.956	0.896	0.92	1.04	1	0.84	0.984	0.58	0.405
LC-2-ad	1.04	1.01	1.05	1.06	0.79	1.08	1	0.892	1.06
LCLC-97TM1	0.938	0.982	0.996	0.937		0.914	1.01	0.508	0.756
LCLC-103H	0.98	0.999	0.952	1.13	0.883	1.11	0.919	1.01	1.07
LK-2	1.02	0.84	0.811	1.04	0.975	1.04		0.913	1.05
LOU-NH91	1	0.836	0.971	0.783		1.07	0.905	0.935	1.09
LU99A	1.05	0.912	1.02	0.781	0.968	1.06	0.917	0.88	0.801
